The target of experiment [1] is T1, HiBit-BRG1 fusion protein in stable HeLa cell line expressing HiBit-BRG1 and LgBit (Homo sapiens, UniProt P51532).
T1 construct: expressed in transfected cells
Kind of experiment: HiBiT-BRG1 cell-based degradation assay (Nano-Glo HiBiT, 24 h). The following applies: HeLa HiBit-BRG1/LgBit cells; for Dmax: top dose 30 μM, read-out: BRG1 HiBit Degradation Maximum (%); for DC50: read-out: BRMG1 HiBit Degradation IC50. Put shortly: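 Stable HeLa line co-expressing HiBiT-BRG1 and LgBiT, compound-treated 24 h; luminescence read after Nano-Glo HiBiT lytic reagent. % degradation normalised between DMSO (high control) and 2 μM reference BRM/BRG1 degrader (low control).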

Experiment [2] deals with T2, HiBiT-BRM fusion protein in stable HeLa cell line (Homo sapiens, UniProt P51531).
T2 construct: expressed in transfected cells
T2 sequence (P51531 whole entry, the tested form may be a part): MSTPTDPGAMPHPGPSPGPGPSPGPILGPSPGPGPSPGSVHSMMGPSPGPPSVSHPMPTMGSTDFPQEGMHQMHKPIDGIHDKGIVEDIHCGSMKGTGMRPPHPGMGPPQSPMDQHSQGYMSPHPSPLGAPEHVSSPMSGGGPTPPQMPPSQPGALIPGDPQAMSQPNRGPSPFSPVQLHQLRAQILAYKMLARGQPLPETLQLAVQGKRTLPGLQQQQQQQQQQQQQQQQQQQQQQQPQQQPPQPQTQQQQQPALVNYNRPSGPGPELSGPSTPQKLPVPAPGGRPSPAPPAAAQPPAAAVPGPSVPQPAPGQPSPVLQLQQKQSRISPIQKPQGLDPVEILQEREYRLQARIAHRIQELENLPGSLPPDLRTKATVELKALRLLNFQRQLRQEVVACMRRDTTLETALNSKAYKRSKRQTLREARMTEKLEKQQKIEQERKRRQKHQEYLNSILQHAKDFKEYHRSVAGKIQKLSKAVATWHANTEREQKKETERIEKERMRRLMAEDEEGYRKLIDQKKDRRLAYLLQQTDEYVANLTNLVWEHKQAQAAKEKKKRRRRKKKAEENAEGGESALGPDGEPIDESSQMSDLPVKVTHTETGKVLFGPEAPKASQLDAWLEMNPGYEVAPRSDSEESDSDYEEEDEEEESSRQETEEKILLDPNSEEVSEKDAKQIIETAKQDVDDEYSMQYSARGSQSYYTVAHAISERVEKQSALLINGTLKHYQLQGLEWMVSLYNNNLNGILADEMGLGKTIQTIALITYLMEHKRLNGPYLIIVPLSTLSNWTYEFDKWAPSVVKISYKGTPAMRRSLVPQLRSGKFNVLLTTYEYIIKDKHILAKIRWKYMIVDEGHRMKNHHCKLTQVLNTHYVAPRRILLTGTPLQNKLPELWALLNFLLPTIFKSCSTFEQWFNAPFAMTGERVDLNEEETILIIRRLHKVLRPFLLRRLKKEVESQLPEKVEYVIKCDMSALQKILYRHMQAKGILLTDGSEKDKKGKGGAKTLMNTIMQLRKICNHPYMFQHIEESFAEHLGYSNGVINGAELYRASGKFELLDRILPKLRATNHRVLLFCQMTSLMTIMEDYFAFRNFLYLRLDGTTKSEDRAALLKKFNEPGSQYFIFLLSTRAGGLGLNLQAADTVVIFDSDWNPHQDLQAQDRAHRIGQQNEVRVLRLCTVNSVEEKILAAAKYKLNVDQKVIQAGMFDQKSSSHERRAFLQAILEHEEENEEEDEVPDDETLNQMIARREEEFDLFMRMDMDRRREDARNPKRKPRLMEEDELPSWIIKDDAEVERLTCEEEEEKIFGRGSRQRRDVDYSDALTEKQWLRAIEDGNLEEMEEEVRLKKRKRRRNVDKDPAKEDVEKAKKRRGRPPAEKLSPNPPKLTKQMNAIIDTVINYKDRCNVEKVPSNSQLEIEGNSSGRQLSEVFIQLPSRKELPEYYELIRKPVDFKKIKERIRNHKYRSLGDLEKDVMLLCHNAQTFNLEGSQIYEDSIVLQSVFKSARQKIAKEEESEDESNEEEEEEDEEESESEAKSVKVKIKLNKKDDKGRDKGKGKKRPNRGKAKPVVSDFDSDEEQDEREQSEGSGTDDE
Put plainly: HiBiT-BRM cell-based degradation assay (Nano-Glo HiBiT Lytic Detection, 24 h). The arrangement: DC50: scale not given here. The following applies: HeLa HiBiT-BRM cells; for DC50: read-out: BRM HiBit Degradation IC50; for BRM HiBit Degradation Maximum (%): top dose 30 μM. Put shortly: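 Stable HiBiT-BRM HeLa cells treated 24 h with 10-point 3-fold dilutions, top final dose 30 μM, in duplicate. Luminescence read after lytic LgBiT reagent. Percent degradation was normalised to DMSO (high control) and 2 μM reference BRM/BRG1 degrader (low control).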
(In general: The HiBiT peptide binds its large partner to form an active luciferase.)

T1 sequence (P51532 whole entry, the tested form may be a part): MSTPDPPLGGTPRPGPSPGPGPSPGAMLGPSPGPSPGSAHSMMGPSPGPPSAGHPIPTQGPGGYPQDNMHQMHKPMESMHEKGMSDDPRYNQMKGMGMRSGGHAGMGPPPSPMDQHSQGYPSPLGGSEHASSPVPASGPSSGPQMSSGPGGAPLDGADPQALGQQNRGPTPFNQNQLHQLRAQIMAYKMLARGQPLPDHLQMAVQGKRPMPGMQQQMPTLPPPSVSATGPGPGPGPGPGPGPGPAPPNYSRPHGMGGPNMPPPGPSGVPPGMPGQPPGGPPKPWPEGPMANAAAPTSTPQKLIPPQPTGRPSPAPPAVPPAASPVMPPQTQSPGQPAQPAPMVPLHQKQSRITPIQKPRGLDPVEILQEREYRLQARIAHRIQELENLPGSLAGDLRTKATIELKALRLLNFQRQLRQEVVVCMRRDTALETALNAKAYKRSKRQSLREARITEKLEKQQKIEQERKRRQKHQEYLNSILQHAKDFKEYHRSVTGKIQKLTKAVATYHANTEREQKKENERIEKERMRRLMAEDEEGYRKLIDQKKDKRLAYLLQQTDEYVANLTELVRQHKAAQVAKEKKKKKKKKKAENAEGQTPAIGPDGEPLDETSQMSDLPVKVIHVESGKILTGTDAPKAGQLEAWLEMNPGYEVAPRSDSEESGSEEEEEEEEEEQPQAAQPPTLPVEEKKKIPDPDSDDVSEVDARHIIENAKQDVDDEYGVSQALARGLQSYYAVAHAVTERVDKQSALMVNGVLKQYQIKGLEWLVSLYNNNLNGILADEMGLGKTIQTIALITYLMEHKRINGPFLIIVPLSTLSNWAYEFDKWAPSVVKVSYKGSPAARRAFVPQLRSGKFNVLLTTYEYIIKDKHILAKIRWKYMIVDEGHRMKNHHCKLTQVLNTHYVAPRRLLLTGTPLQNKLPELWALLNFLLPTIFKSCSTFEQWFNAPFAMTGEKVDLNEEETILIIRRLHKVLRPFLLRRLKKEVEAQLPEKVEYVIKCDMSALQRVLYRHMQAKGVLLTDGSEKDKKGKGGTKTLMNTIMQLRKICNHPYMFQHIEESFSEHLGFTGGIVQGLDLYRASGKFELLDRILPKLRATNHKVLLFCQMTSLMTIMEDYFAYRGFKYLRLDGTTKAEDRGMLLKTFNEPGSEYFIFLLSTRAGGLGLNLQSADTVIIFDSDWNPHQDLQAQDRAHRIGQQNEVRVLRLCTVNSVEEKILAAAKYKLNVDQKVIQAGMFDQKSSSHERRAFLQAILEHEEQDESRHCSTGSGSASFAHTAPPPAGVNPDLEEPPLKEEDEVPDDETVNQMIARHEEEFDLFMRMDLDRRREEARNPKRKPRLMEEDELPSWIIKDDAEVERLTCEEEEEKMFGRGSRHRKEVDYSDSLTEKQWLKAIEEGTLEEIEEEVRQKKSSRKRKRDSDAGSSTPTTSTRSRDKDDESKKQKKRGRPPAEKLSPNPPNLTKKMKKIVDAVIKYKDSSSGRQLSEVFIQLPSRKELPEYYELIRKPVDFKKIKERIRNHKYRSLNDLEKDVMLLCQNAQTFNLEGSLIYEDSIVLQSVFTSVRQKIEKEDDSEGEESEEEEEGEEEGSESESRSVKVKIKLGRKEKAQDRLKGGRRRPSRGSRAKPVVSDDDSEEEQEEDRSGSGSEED

For the molecule `Cc1ncsc1-c1ccc([C@H](C)NC(=O)[C@@H]2C[C@@H](O)CN2C(=O)[C@@H](c2cc(N3CCC4(CC[C@@H](c5ccc6cc(-c7ccccc7O)nnc6c5)C4)CC3)no2)C(C)C)cc1` [Compound 93, (2S,4R)-4-hydroxy-1-((R)-2-(3-((R)-2-(3-(2-hydroxyphenyl)cinnolin-7-yl)-8-azaspiro[4.5]decan-8-yl)isoxazol-5-yl)-3-methylbutanoyl)-N-((S)-1-(4-(4-methylthiazol-5-yl)phenyl)ethyl)pyrrolidine-2-carboxamide], the Dmax in experiment [1] was less than 50%. Moreover, in experiment [2], the DC50 was less than 10 nM and the “BRM HiBit Degradation Maximum (%)” value is listed as “A (“A” indicates maximum degradation ≥75%)”.

For the molecule `Cc1ncsc1-c1ccc([C@H](C)NC(=O)[C@@H]2C[C@@H](O)CN2C(=O)[C@@H](c2cc(-c3cnc(N4CCC5(CC4)CC(c4ccc6nnc(-c7ccccc7O)cc6c4)C5)nc3)no2)C(C)C)cc1` [Compound 56, (2S,4R)-4-hydroxy-1-((R)-2-(3-(2-(2-(3-(2-hydroxyphenyl)cinnolin-6-yl)-7-azaspiro[3.5]nonan-7-yl)pyrimidin-5-yl)isoxazol-5-yl)-3-methylbutanoyl)-N-((S)-1-(4-(4-methylthiazol-5-yl)phenyl)ethyl)pyrrolidine-2-carboxamide], in experiment [1], the DC50 is less than 10 nM and the Dmax was greater than 75%. Also, in experiment [2], the DC50 is less than 10 nM and the “BRM HiBit Degradation Maximum (%)” value was “A (“A” indicates maximum degradation ≥75%)”.

As for `Cc1ncsc1-c1ccc([C@H](C)NC(=O)[C@@H]2C[C@@H](O)CN2C(=O)[C@@H](c2cc(N3CCC4(CC3)CN(c3ccc5cc(-c6ccccc6O)nnc5c3)CCN4C)no2)C(C)C)cc1` [Compound 153, (2S,4R)-4-hydroxy-1-((R)-2-(3-(4-(3-(2-hydroxyphenyl)cinnolin-7-yl)-1-methyl-1,4,9-triazaspiro[5.5]undecan-9-yl)isoxazol-5-yl)-3-methylbutanoyl)-N-((S)-1-(4-(4-methylthiazol-5-yl)phenyl)ethyl)pyrrolidine-2-carboxamide], the Dmax in experiment [1] was less than 50%. Moreover, in experiment [2], the DC50 was less than 10 nM and the “BRM HiBit Degradation Maximum (%)” value was “A (“A” indicates maximum degradation ≥75%)”.

As for `Cc1ncsc1-c1ccc([C@H](C)NC(=O)[C@@H]2C[C@@H](O)CN2C(=O)[C@@H](c2cc(N3CC4(C3)CN(c3cc5nnc(-c6ccccc6O)cc5cc3C#N)C4)no2)C(C)C)cc1` [Compound 167, (2S,4R)-1-((R)-2-(3-(6-(6-cyano-3-(2-hydroxyphenyl)cinnolin-7-yl)-2,6-diazaspiro[3.3]heptan-2-yl)isoxazol-5-yl)-3-methylbutanoyl)-4-hydroxy-N-((S)-1-(4-(4-methylthiazol-5-yl)phenyl)ethyl)pyrrolidine-2-carboxamide], the Dmax in experiment [1] is less than 50%. In addition, in experiment [2], the DC50 was less than 10 nM and the “BRM HiBit Degradation Maximum (%)” value is “A (“A” indicates maximum degradation ≥75%)”.

For the molecule `Cc1ncsc1-c1ccc([C@H](C)NC(=O)[C@@H]2C[C@@H](O)CN2C(=O)[C@@H](c2cc(-c3cnc(N4CC(c5cc(Cl)c6cc(-c7ccccc7O)nnc6c5)C4)nc3)no2)C(C)C)cc1` [Compound 36], the Dmax in experiment [1] is less than 50%. Further, in experiment [2], the DC50 was greater than 10 nM and the “BRM HiBit Degradation Maximum (%)” value is recorded as “B (“B” indicates maximum degradation ≥50%)”.

With `Cc1ncsc1-c1ccc([C@H](C)NC(=O)[C@@H]2C[C@@H](O)CN2C(=O)[C@H](C(C)C)n2cc(-c3cc4cc(-c5ccccc5O)nnc4cc3F)nn2)cc1` [Compound 176, (2S,4R)-1-((S)-2-(4-(7-fluoro-3-(2-hydroxyphenyl)cinnolin-6-yl)-1H-1,2,3-triazol-1-yl)-3-methylbutanoyl)-4-hydroxy-N-((S)-1-(4-(4-methylthiazol-5-yl)phenyl)ethyl)pyrrolidine-2-carboxamide], in experiment [1], the DC50 was less than 10 nM and the Dmax is greater than 75%. Moreover, in experiment [2], the DC50 is less than 10 nM and the “BRM HiBit Degradation Maximum (%)” value is “A (“A” indicates maximum degradation ≥75%)”.

Take `COc1cc2cc(-c3ccccc3O)nnc2cc1N1CC2(CN(c3cc([C@H](C(=O)N4C[C@H](O)C[C@H]4C(=O)N[C@@H](C)c4ccc(-c5scnc5C)cc4)C(C)C)on3)C2)C1` [Compound 159, (2S,4R)-4-hydroxy-1-((R)-2-(3-(6-(3-(2-hydroxyphenyl)-6-methoxycinnolin-7-yl)-2,6-diazaspiro[3.3]heptan-2-yl)isoxazol-5-yl)-3-methylbutanoyl)-N-((S)-1-(4-(4-methylthiazol-5-yl)phenyl)ethyl)pyrrolidine-2-carboxamide]: in experiment [1], the DC50 is less than 10 nM and the Dmax was greater than 75%. In addition, in experiment [2], the DC50 was less than 10 nM and the “BRM HiBit Degradation Maximum (%)” value is on record as “A (“A” indicates maximum degradation ≥75%)”.

For `C#Cc1cc2nnc(-c3ccccc3O)cc2cc1N1CC2(CN(c3cc([C@H](C(=O)N4C[C@H](O)C[C@H]4C(=O)N[C@@H](C)c4ccc(-c5scnc5C)cc4)C(C)C)on3)C2)C1` [Compound 241, (2S,4R)-1-((R)-2-(3-(6-(7-ethynyl-3-(2-hydroxyphenyl)cinnolin-6-yl)-2,6-diazaspiro[3.3]heptan-2-yl)isoxazol-5-yl)-3-methylbutanoyl)-4-hydroxy-N-((S)-1-(4-(4-methylthiazol-5-yl)phenyl)ethyl)pyrrolidine-2-carboxamide], in experiment [1], the DC50 is less than 10 nM and the Dmax is greater than 75%. Also, in experiment [2], the DC50 is less than 10 nM and the “BRM HiBit Degradation Maximum (%)” value is given as “A (“A” indicates maximum degradation ≥75%)”.

In the case of `Cc1ncsc1-c1ccc([C@H](C)NC(=O)[C@@H]2C[C@@H](O)CN2C(=O)[C@@H](c2cc(-c3cnc(N4CC(c5cc6nnc(-c7ccccc7O)cc6cc5C5CC5)C4)nc3)no2)C(C)C)cc1` [Compound 68, (2S,4R)-1-((R)-2-(3-(2-(3-(6-cyclopropyl-3-(2-hydroxyphenyl)cinnolin-7-yl)azetidin-1-yl)pyrimidin-5-yl)isoxazol-5-yl)-3-methylbutanoyl)-4-hydroxy-N-((S)-1-(4-(4-methylthiazol-5-yl)phenyl)ethyl)pyrrolidine-2-carboxamide], in experiment [1], the DC50 is greater than 10 nM and the Dmax is greater than 75%. Besides, in experiment [2], the DC50 was less than 10 nM and the “BRM HiBit Degradation Maximum (%)” value is reported as “A (“A” indicates maximum degradation ≥75%)”.

Regarding `Cc1ncsc1-c1ccc([C@H](C)NC(=O)[C@@H]2C[C@@H](O)CN2C(=O)[C@@H](c2cc(N3CC4(C3)CN(c3cc5nnc(-c6ccccc6O)cc5cc3OC(F)F)C4)no2)C(C)C)cc1` [Compound 206, (2S,4R)-1-((R)-2-(3-(6-(6-(difluoromethoxy)-3-(2-hydroxyphenyl)cinnolin-7-yl)-2,6-diazaspiro[3.3]heptan-2-yl)isoxazol-5-yl)-3-methylbutanoyl)-4-hydroxy-N-((S)-1-(4-(4-methylthiazol-5-yl)phenyl)ethyl)pyrrolidine-2-carboxamide], in experiment [1], the DC50 is greater than 10 nM and the Dmax is greater than 50%. Also, in experiment [2], the DC50 was less than 10 nM and the “BRM HiBit Degradation Maximum (%)” value is “A (“A” indicates maximum degradation ≥75%)”.

For the molecule `CCOc1cc2cc(-c3ccccc3O)nnc2cc1N1CC2(CN(c3cc([C@H](C(=O)N4C[C@H](O)C[C@H]4C(=O)N[C@@H](C)c4ccc(-c5scnc5C)cc4)C(C)C)on3)C2)C1` [Compound 237, (2S,4R)-1-((R)-2-(3-(6-(6-ethoxy-3-(2-hydroxyphenyl)cinnolin-7-yl)-2,6-diazaspiro[3.3]heptan-2-yl)isoxazol-5-yl)-3-methylbutanoyl)-4-hydroxy-N-((S)-1-(4-(4-methylthiazol-5-yl)phenyl)ethyl)pyrrolidine-2-carboxamide], in experiment [1], the DC50 is less than 10 nM and the Dmax is greater than 75%. Moreover, in experiment [2], the DC50 was less than 10 nM and the “BRM HiBit Degradation Maximum (%)” value is “A (“A” indicates maximum degradation ≥75%)”.

Turning to `Cc1ncsc1-c1ccc([C@H](C)NC(=O)[C@@H]2C[C@@H](O)CN2C(=O)C(C(C)C)n2cc(N3CCN(CC4CCN(c5ccc6cc(-c7ccccc7O)nnc6c5)CC4)CC3)nn2)cc1` (stereo partly drawn) [Compound 247, (2S,4R)-4-hydroxy-1-(2-(4-(4-((1-(3-(2-hydroxyphenyl)cinnolin-7-yl)piperidin-4-yl)methyl)piperazin-1-yl)-1H-1,2,3-triazol-1-yl)-3-methylbutanoyl)-N-((S)-1-(4-(4-methylthiazol-5-yl)phenyl)ethyl)pyrrolidine-2-carboxamide], in experiment [1], the DC50 is less than 10 nM and the Dmax was greater than 75%. Besides, in experiment [2], the DC50 is less than 10 nM and the “BRM HiBit Degradation Maximum (%)” value is “A (“A” indicates maximum degradation ≥75%)”.

As to `Cc1ncsc1-c1ccc([C@H](C)NC(=O)[C@@H]2C[C@@H](O)CN2C(=O)[C@@H](c2cc(-c3cnc(N4CCN(c5ccc6nnc(-c7ccccc7O)cc6c5)CC4)nc3)no2)C(C)C)cc1` [Compound 13, (2S,4R)-4-hydroxy-1-((R)-2-(3-(2-(4-(3-(2-hydroxyphenyl)cinnolin-6-yl)piperazin-1-yl)pyrimidin-5-yl)isoxazol-5-yl)-3-methylbutanoyl)-N—((S)-1-(4-(4-methylthiazol-5-yl)phenyl)ethyl)pyrrolidine-2-carboxamide], in experiment [1], the DC50 is less than 10 nM and the Dmax is greater than 75%. In experiment [2], the DC50 is less than 10 nM and the “BRM HiBit Degradation Maximum (%)” value is given as “A (“A” indicates maximum degradation ≥75%)”.
